Like-named read-outs stand apart in the source and are kept apart here.

The target in one data set is T1, ETA receptor (Homo sapiens, UniProt P25101).
T1 construct: host or cells: human neuroblastoma SK-N-MC cells (membranes)
T1 sequence (P25101 21-427): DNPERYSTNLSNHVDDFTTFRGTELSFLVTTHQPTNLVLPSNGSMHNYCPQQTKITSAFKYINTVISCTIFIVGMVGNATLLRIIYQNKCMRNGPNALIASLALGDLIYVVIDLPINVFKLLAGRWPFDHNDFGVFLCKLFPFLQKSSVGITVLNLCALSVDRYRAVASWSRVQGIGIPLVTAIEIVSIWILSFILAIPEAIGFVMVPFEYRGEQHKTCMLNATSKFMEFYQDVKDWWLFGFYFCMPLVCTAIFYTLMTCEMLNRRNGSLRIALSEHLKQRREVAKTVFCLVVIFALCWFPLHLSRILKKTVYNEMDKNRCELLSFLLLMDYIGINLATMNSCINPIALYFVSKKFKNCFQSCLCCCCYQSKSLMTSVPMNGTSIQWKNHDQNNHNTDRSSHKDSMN
As to the kind of experiment: Endothelin binding inhibition test on human endothelin receptors ([125I]endothelin-1), ETA. On the procedure: (§1) Endothelin Binding Inhibition Test on Human Endothelin Recepters
The human neuroblastoma SK-N-MC cells or the human Giradi heart cells, purchased from Dainippon Seiyaku (Japan), were cultured in minimal essential medium supplemented with fetal calf serum. The cells were collected and homogenized in 10 mM MOPS buffer (pH 7.4) containing 154 mM NaCl, 10 mM KCl, 0.8 mM CaCl2 and 20% sucrose at 4° C. using a polytron homogenizer. The homogenate was then centrifuged at 10,000×g for 15 minutes. The supernatant was centrifuged at 100,000×g for 1 hour at 4° C. Then the pellet was washed with 5 mM HEPES/Tris buffer (pH 7.4). The resulting membranes (50 μl) were mixed with [^125I]endothelin-1 (20 pM) and 4 μl of DMSO solution of a test compound in 67 mM Tris/HCl buffer (pH 7.4) containing 0.13 mM phenylmethanesulfonyl fluoride, 1.3 μM pepstatin, 2.7 μM leupeptin, 1.3 mM 1,10-phenanthroline, 1.3 mM EDTA, 13 μM CaCl2, 13 μM MgCl2 and 0.13% bovine serum albumin (BSA) in a total volume of 0.35 ml. After 4 hours incubation, cold 5 mM HEPES/Tris buffer (pH 7.4) containing 0.3% BSA (Buffer B) was added to the mixture, and free and bound [^125I]endothelin-1 were separated by filtration using Whatman GF/C glass fiber filters. After the filtration, the filters were washed with buffer B, and the radioactivity on the filters was measured in a γ counter. Nonspecific binding was determined in the presence of 200 nM endothelin-1.
The concentration of a test compound of the present invention causing 50% inhibition of [^125I]endothelin-1 binding (IC50 value) was derived by the following [^125I]endothelin-1 binding inhibition D (%): [formula]
(§2) where (A): for nonspecific binding including 200 nM of unlabeled endothelin-1 as the final concentration, (B): for total binding including labeled endothelin-1 without a test compound, and (C): for binding including labeled endothelin-1 with a concentration of a test compound, show the radioactivity.

The next data set addresses T2, ETB receptor (Homo sapiens, UniProt P24530).
T2 construct: host or cells: human Girardi heart cells (membranes)
T2 sequence (P24530 27-442): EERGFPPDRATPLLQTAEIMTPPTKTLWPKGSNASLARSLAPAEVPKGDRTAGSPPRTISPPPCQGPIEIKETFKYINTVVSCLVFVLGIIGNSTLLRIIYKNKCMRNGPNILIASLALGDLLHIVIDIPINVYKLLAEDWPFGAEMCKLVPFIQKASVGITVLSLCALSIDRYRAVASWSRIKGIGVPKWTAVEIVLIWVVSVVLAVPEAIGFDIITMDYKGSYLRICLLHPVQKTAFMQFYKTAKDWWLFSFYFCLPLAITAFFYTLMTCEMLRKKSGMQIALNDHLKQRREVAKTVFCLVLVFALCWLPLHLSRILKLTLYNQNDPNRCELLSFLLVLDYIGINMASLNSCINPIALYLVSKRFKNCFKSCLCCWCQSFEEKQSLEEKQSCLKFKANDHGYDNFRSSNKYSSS
As to the kind of experiment: Endothelin binding inhibition test on human endothelin receptors ([125I]endothelin-1), ETB. The note with it: human cell membranes, 20 pM [125I]endothelin-1, 4 hours incubation. Here is the method:
as §1
The human neuroblastoma SK-N-MC cells or the human Giradi heart cells, purchased from Dainippon Seiyaku (Japan), were cultured in minimal essential medium supplemented with fetal calf serum. The cells were collected and homogenized in 10 mM MOPS buffer (pH 7.4) containing 154 mM NaCl, 10 mM KCl, 0.8 mM CaCl2 and 20% sucrose at 4° C. using a polytron homogenizer. The homogenate was then centrifuged at 10,000×g for 15 minutes. The supernatant was centrifuged at 100,000×g for 1 hour at 4° C. Then the pellet was washed with 5 mM HEPES/Tris buffer (pH 7.4). […] After the filtration, the filters were washed with buffer B, and the radioactivity on the filters was measured in a γ counter. Nonspecific binding was determined in the presence of 200 nM endothelin-1. […]
as §2

For data set [1], the system named is endothelin-induced contraction of iliac artery specimen. Here is the method: Effect on Endothelin-induced Contraction of Iliac Artery Specimen from Rabbit
The iliac artery was excised from a rabbit and made into a spiral specimen of 1 mm wide and 10 mm long. The specimen was stripped of the endothelial cells and suspended in a 5 ml Magnus tube filled with Krebs-Henseleit solution saturated with a gas mixture of O2 (95%) and CO2 (5%), and the change in tension was isometrically measured and recorded.
The effects of a compound of the present invention on the dose-response curve obtained by cumulative addition of endothelin-1 to the Magnus tube were investigated. A compound of the present invention was added to the Magnus tube at a final concentration of 10 μM 20 minutes before the addition of endothelin-1.

For data set [2] the following is noted: 10 mg/kg as sodium salt in water, SD male rats, bioassay. On the procedure: Concentration in Rat Plasma after Oral Administration
SD male rats (8 weeks old, n=3) were subjected to cannulation of the carotid artery beforehand and after the recovery from the surgery, subjected to a fast of one night for the test. The sodium salt of the diastereomer A prepared in Example 14, which is a representative compound of the present invention, was dissolved in water, and the resulting aqueous solution (concentration: 2.0 mg/ml) was forcibly administrated into the stomach in an amount of 10 mg/kg by gavage. Before the administration and 1, 4 and 8 hours after the administration, 120 μl of the blood was withdrawn from the cannulae in the carotid arteries with the aid of heparin and the plasma was separated by cold centrifugation. 25 μl of portions of the plasma were deproteinized by adding 100 μl of ethanol and centrifuged (10,000×g, 10 minutes, 0° C.) under cooling. 80 μl portions of the supernatants was used for a bioassay of the concentration in plasma.

By IC50 is commonly meant the concentration needed to halve the response being measured. The low end stands for greater potency in that assay, the high end for weaker potency in that assay. In the case of `COc1ccc([C@@H]2c3nc(NC(C)C)ccc3[C@H](c3ccc4c(c3)OC(F)(F)O4)[C@H]2C(=O)O)c(CC(C)C(=O)O)c1` (single isomer, unassigned; diastereomer a) [Diastereomer A of example 18], the “binding-inhibitory activity to ETA receptor compared with ETB receptor (in words)” value on ETA receptor is recorded as “far higher binding-inhibitory activity to ETA receptor than to ETB receptor”. Also, the IC50 on ETA receptor (human cell membranes, 20 pM [125I]endothelin-1, 4 hours incubation) turned out to be 0.056 nM; at ETB receptor, 78 nM. For the same compound, the ETB/ETA result on ETA receptor (ratio of IC50 values) is given as “ETB/ETA = 1400”.

Take `COc1ccc([C@@H]2c3nc(NC(C)C)ccc3[C@H](c3ccc4c(c3)OC(F)(F)O4)[C@H]2C(=O)O)c(CC(C)CO)c1` (single isomer, unassigned; diastereomer a) [diastereomer A prepared in Example 14]: the “change in the maximum response to endothelin-1” value in data set [1] (concentrations from 0.1 μM to 10 μM) is reported as “no change in the maximum response”. Moreover, the “effect on the dose-response curve for endothelin-1” value in data set [1] (concentrations from 0.1 μM to 10 μM, added 20 minutes before endothelin-1) is given as “appreciably shifted the dose-response curve for endothelin-1 to the right”. The “effect of the compound by itself on the artery specimen” value in data set [1] (without endothelin-1) was “no effect on the artery specimen by itself”. For the same compound, the “concentration in rat plasma” value in data set [2] (1 hour after oral administration) stood at 452 ng/mL; in data set [2] (4 hours after oral administration) it was 124 ng/mL; in data set [2] (8 hours after oral administration), 203 ng/mL.

The values above are taken from patent US6413979B1, “Substituted 5-(2,2-difluoro-1,3-benzodioxol-5-yl) cyclopentenopyridine derivative” (Banyu Pharmaceutical Co., Ltd., priority 1998, dated 2002).
